Consider one substance from patent US11932850B2, “Cancer chemoprevention with STAT3 blockers” (Jill M. Siegfried, LLC, priority 2018, dated 2024).

The subject of series [1] is A549 cells. The method, then: NSCLC cell lines (201T and H1975) were transfected with CS3D or CS3M (cyclic STAT3 mutant decoy) at concentrations ranging from 0 nM to 600 nM. Using MTS assays, cell viabilities were assessed 72 hours later. Three independent experiments were performed, using 24-well plates and 4 wells/concentration.
To determine the concentration of CS3D required to inhibit cell viability, increasing concentrations of CS3D was transfected, and after 72 hours, MTS assays were used to assess cell viability. Data were normalized to cells treated with lipofectamine alone.
Fluorescently-labeled CS3M and CS3D (with iFluor) were also produced using enzymatic ligation as described above and used to assess uptake efficiency. Transfections of the cyclic oligonucleotides were performed using Lipofectamine 2000 (Life Technologies) in opti-MEM media (Life Technologies) as follows: Cells were plated at […] confluency, and exposed to transfection media containing the respective circularized oligonucleotides for 24 hours at 37° C. […]
Dose-response experiments assessing the relative number of metabolically active viable cells were performed by transfecting cells with increasing concentrations of CS3D or CS3M, followed by performance of MTS assays. […] The plates were then read at 490 nm in a Synergy microplate reader (BioTek, Winooski, Vermont) using Gen5 2.05 software. […]

Series [2] deals with 201T xenografts. Briefly: 201T NSCLC xenograft tumor growth. It counts as in vivo, nude mice. The method, then:
(§1) Based on the in vitro effects of CS3D, antitumor effects were evaluated in mice harboring established NSCLC xenografts (10 tumors/group). When tumors reached 200 mm3, mice were given daily intravenous injections (tail vein) of CS3D or CS3M (5 mg/kg/d), 5 days per week, and tumor growth was monitored for 14-20 days. CS3D caused a significant and robust tumor growth inhibition in 201T- and H1975-derived xenografts compared to treatment with CS3M.
(§2) FIGS. 7A and 7B show CS3D suppresses NSCLC xenograft tumor growth. Intravenous delivery of CS3D inhibits tumor growth in both wild-type (FIG. 7A, 201T) and mutant EGFR T790M (FIG. 7B, H1975) xenografts. Approximately 1×10^6 cells were inoculated subcutaneously in the flanks of nude mice. Following the development of palpable tumors (about […]), mice were randomized and given daily injections of either CS3D or CS3M (5 mg/kg/day; 10 tumors/group). Experiments were done twice as biological replicates. Tumor volumes were recorded every other day while animal weights were also monitored during the course of the treatment. […]
(§3) All studies were approved by the University of Minnesota Institutional Animal Care and Use Committee and were carried out in accordance with institutional guidelines for animal care. […] Volumes were calculated from the formula V=(Length×Width^2)/2. […]

Series [3] deals with H1975 xenografts. Briefly: H1975 NSCLC xenograft tumor growth. It counts as in vivo, nude mice. As to conditions: 5 mg/kg/d iv, 5 days per week, compared to CS3M. The method, then: as §1, §2, §3
Series [4] has as its system c-Myc in H1975-derived tumors. In words: c-Myc expression in H1975 xenograft tumors (Western blot). It counts as in vivo, nude mice. The method, then: FIGS. 7C and 7D show c-Myc is suppressed after CS3D treatment in vivo. At the end of the treatments, tumors were harvested, whole cell lysates were prepared and RNA extracted for target gene analysis by Western blotting and RT-qPCR GAPDH protein was used as internal loading control for immunoblotting. CS3D treated tumors (C4, C5, and C6) from separate animals show a decrease in c-Myc expression level relative to the CS3M-treated group (C1, C2, and C3) in 201T. […] Data are shown as mean+/−SEM.
To determine how CS3D blocks NSCLC growth, Western blot, qRT-PCR, and immunohistochemical analysis were performed to determine expression of c-Myc in residual tumors. These analyses identified a substantial downregulation of c-Myc protein (FIGS. 7C and 7D) and mRNA levels (FIG. 7E) in individual CS3D-treated tumors relative to CS3M-treated tumors in both 201T and H1975 xenografts. Some variability in protein levels among individual xenografts was observed (FIGS. 7C and 7D); the densitometry units for c-Myc protein after normalizing for GAPDH levels ranged from 0.11-0.16 units for CS3D-treated xenografts and 0.25-0.46 units for CS3M-treated tumors in H1975. Similarly, in 201T-derived tumors these measurements ranged from 0.015 to 0.51 units for CS3D and 0.28 to 0.97 units for CS3M. Even with this variability, the effect across the groups in both cell lines was significant (P<0.05 for H1975 and P<0.042 for 201T xenografts), with a mean decrease of 65% and 70%, respectively.

Series [5] has as its system normal lung fibroblasts.
The subject of series [6] is K-RAS G12D mutation in tumors. To be noted: tumors 20 weeks post treatment, P>0.1.

As for “CS3D (DNA GATTTACGGGAAATGCSCATTTCCC; cyclic decoy with two hexaethylene glycol linkers, further chemistry not given here)”, the IC50 in series [1] came to 300 nM. Besides, the “reduction in tumor growth (tumor volume)” value in series [2] (201T xenograft, 5 mg/kg/d iv, 5 days per week, compared to CS3M) amounted to 96.5%; in series [3], 81.7%. Further, the “tumor growth inhibition at 14 days” value in series [2] (both KRAS WT cell lines (201T and H1975), as reported (Njatcha et al 2017)) was “over 85%”. In series [4] (H1975 xenograft tumors, range among individual tumors), the “c-Myc protein densitometry normalized for GAPDH” value is 0.11-0.16 units. Further, the “mean decrease of c-Myc protein” value in series [4] (H1975 xenografts, CS3D vs CS3M) was 65%. Further, in series [5], the “toxicity in normal cells” value is given as “minimal”. The “IC50 in normal lung fibroblasts and bronchial epithelial cells relative to tumor cells” value in series [5] (fold higher than in NSCLC cell lines) is on record as 100 fold. Also, the “proportion of tumors positive for K-RAS mutation, CS3D vs CS3M” value in series [6] is “no significant difference”.
